Measurements: publication PMC7934871 (JCI Insight, 2021)
Non-standard residues stand in square brackets, D forms with d. No end group written: not given here. pY = N[C@@H](Cc1ccc(OP(=O)(O)O)cc1)C(=O)O

Tests used:
STAT3-regulated genes = assay: Expression of STAT3 targets in HCT116 cells (Western blotting, qPCR); assay type: cell-based, human
Excerpt: Figure 3 PS-acet.-STAT3 peptide inhibits STAT3 activity and downregulates the expression of STAT3 targets. (A) Downregulation of STAT3 activity and its downstream target proteins shown in human HCT116 colorectal cancer cells by Western blotting (data represent 1 of the 3 experiments, n = 3). PO-acet.-STAT3 and PS-STAT3-K685R peptides were used in parallel as controls. (B) STAT3 inhibition regulated the expression of proliferation and apoptotic genes, assessed by real-time quantitative PCR. Data present mean ± SD, n = 3 independent experiments, 1-way ANOVA; ***P < 0.005; **P < 0.01. […] For p53 promoter assay, data represent 3 replicates in 3 independent experiments (n = 9). […]
Whole cell lysates or tissue homogenates were prepared by using RIPA lysis buffer (50 mM Tris at pH 7.4, 150 mM NaCl, 1 mM EDTA, 0.5% NP-40, 1 mM NaF, 15% glycerol, and 20 mM β-glycerophosphate). […] Protein amounts were determined by BCA using a Thermo Fisher Scientific kit. […]
Total RNA was extracted from cultured or tumor tissues using RNeasy kit (QIAGEN), according to manufacturer’s instruction. After cDNA synthesis using iScript cDNA Synthesis kit (Bio-Rad), samples were analyzed using pairs of primers specific for CASP9, CASP3, CASP8, BIRC5, BCL2L1, MYC, TP53, VEGF, IL1B, SERPIN3, FGA, CDK4, CCND2, CDKN2A, CDKN2B, GADD45A, mCD274, mMmp9, and mBirc5, as indicated. […]

[1] = tested on: EGF-mediated ERK phosphorylation; assay: EGF-mediated ERK phosphorylation, Western blotting; assay type: cell-based; conditions: preincubated 2 hours, 30 ng/mL EGF for 30 minutes
Method: Figure 8 PS-Gp130 and PS-MYC blocking peptides efficiently internalize into tumor cells to exert their functions. (A) For 1 hour 1 μM of PS-conjugated MYC (PS-MYC) and Gp130 (PS-Gp130) were incubated with cancer cells. PS-scramble MYC (PS-SC-MYC) was used as a control for PS-MYC. The peptide uptake was visualized by confocal microscopy and quantified by flow cytometry. Data are representative of 3 independent experiments (n = 3). (B) Upper panel: The binding of PS-Gp130 and STAT3 was examined by immunoprecipitation and Western blotting. PO-Gp130 was used as a control. For 4 hours prior to harvest, 1 μM of peptide was incubated with cells. Lower panel: PS-Gp130 inhibits IL-6–induced phosphorylation of STAT3 and p44/42 but not EGF-mediated signaling. The cells were preincubated with PS-Gp130 for 2 hours and then stimulated with 20 ng/mL of IL-6 or 30 ng/mL of EGF for 30 minutes before harvest and Western blotting. (C) Gene expression of STAT3 targets was examined by quantitative PCR after the treatment with 1 μM of PS-Gp130 with or without IL-6 stimulation as described above. Data shown are 3 independent experiments (n = 3); SD is shown. Unpaired Student’s t test; ***P < 0.005; **P < 0.01; *P < 0.05. (D) A total of 1 μM of PS-SC-MYC or PS-MYC was incubated with cells for 48 hours before the gene expression of MYC targets was examined by quantitative PCR. […]

Substance	expression of STAT3-regulated genes Survivin (BIRC5) and MYC, protein and mRNA (STAT3-regulated genes; HCT116, approximately 1 μM)	expression of STAT3-suppressed apoptotic genes TP53, CASP9, CASP3 (STAT3-regulated genes; HCT116 and LoVo, real-time quantitative PCR)	EGF-mediated ERK phosphorylation [1]
PDIPKEEAFGK685(Ac)YCRPESQEHPC-linker-T*C*C*A*T*G*A*G*C*T*T*C*C*T*G*A*T*G*C*T [PS-acet.-STAT3 peptide]	significant downregulation	upregulated	–
PS-Gp130: PS-conjugated Gp130 peptide (amino acids 901–910) with phospho-Tyr905 (MPKS[pY]LPQTV; also: phosphorothioate oligonucleotide conjugate; UniProt P40189 901-910, looked up, fragment)	–	–	not
